According to PubChem BioAssay (NCI):
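1) Cells in 96-well plates. 2) Compound, 48 h, 5 concentrations. 3) Linear interpolation between surrounding doses. 4) Unreached endpoint = highest concentration. Here, GI50 denotes the concentration required for 50% inhibition of growth. TGI: concentration producing complete growth inhibition.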

Assays:
Assay in all cases: DTP human tumour cell line panel, 48 h
CAKI-1 renal = system: CAKI-1 renal
EKVX NSCLC = system: EKVX NSCLC
HT29 colon = system: HT29 colon
NCI-H226 lung = system: NCI-H226 lung
OVCAR-3 ovarian = system: OVCAR-3 ovarian
SF-295 CNS = system: SF-295 CNS
SF-539 CNS = system: SF-539 CNS
SW-620 colon = system: SW-620 colon
MOLT-4 leukemia = system: MOLT-4 leukemia
XF 498 CNS = system: XF 498 CNS

Compound	GI50 (CAKI-1 renal) [µM]	TGI (CAKI-1 renal) [µM]	GI50 (EKVX NSCLC) [µM]	TGI (EKVX NSCLC) [µM]	GI50 (HT29 colon) [µM]	TGI (HT29 colon) [µM]	GI50 (NCI-H226 lung) [µM]	TGI (NCI-H226 lung) [µM]	GI50 (OVCAR-3 ovarian) [µM]	TGI (OVCAR-3 ovarian) [µM]	GI50 (SF-295 CNS) [µM]	TGI (SF-295 CNS) [µM]	GI50 (SF-539 CNS) [µM]	TGI (SF-539 CNS) [µM]	GI50 (SW-620 colon) [µM]	TGI (SW-620 colon) [µM]	TGI (MOLT-4 leukemia) [µM]	TGI (XF 498 CNS) [µM]	GI50 (MOLT-4 leukemia) [µM]
O=[N+]([O-])c1ccc(N/N=C\c2ccc(O)cc2O)nc1	1.68	9.8	3.49	> 100	5.32	> 100	3.39	> 100	0.398	42.1	2.96	> 100	3.07	> 100	2.69	> 100	–	–	–
CSc1nc(NC2OC(CO)C(O)C(O)C2O)c(N)c(=O)[nH]1 (configuration not stated)	–	–	–	> 100	–	> 100	–	> 100	–	> 100	–	> 100	–	> 100	–	> 100	> 100	> 100	–
O=c1n(CC2CO2)c2ccccc2n1CC1CS1 (configuration not stated)	–	> 100	–	> 100	–	–	–	> 100	–	> 100	–	> 100	–	> 100	–	> 100	> 100	> 100	–
COc1ccc(Nc2cnc3cc(N)ccc3n2)cc1OC	–	–	–	> 100	–	> 100	–	> 100	–	> 100	–	> 100	–	–	–	> 100	> 100	> 100	–
O=C(O)c1cc2sc(C(=O)O)cc2s1	–	> 100	–	–	–	> 100	–	> 100	–	> 100	–	> 100	–	> 100	–	> 100	> 100	> 100	–
COC(=O)C(Cc1cc(OC)c(OC)c(OC)c1)(NC(=O)c1ccccc1)P(=O)(OC)OC (configuration not stated)	–	> 100	–	> 100	–	> 100	–	> 100	–	–	–	> 100	–	> 100	–	> 100	> 100	> 100	–
CCCCCCCCC[C@@H]1C[C@H](O)[C@H](Cc2ccccc2)N1C(=O)OC(C)(C)C	–	38.2	–	33.5	–	31.5	–	–	–	34.6	–	30.1	–	37.2	–	38.4	> 100	37	–
COc1cc(/C=C2\CCCC3=C2N=C2SC=NN2C3c2cc(OC)c(OC)c(OC)c2)cc(OC)c1OC (configuration not stated)	3.43	> 100	–	–	3.07	7.41	–	–	3.02	9.32	–	–	2.9	> 100	–	–	–	–	3.06
Nc1[nH]nc2c1Cc1c(n(Cc3ccc(Cl)cc3)c3ccccc13)C(=O)N2	–	23.5	–	59.2	–	34.9	–	44.7	–	30.5	–	35.9	–	29.9	–	> 100	29.3	–	–
